The values below come from patent US6762189B1, “5-pyrimidinecarboxamide derivatives and the pharmaceutical compositions containing said derivatives” (Dong Wha Pharm. Ind. Co., Ltd., priority 1999, dated 2004).

One data set deals with T1, HBV polymerase (Hepatitis B virus genotype A2 subtype adw2, UniProt P03159).
T1 construct: made in house; host or cells: E. coli
The data set can be described thus: In vitro reverse transcription activity of HBV polymerase (ELISA-type, DIG/biotin nucleotides). Type of data set: biochemical. The conditions noted are these: read-out: Inhibition activity on HBV-RT (%); for inhibition at 0.01 µg/mL: 0.01 μg/ml test compound; for inhibition at 0.1 µg/mL: 0.1 μg/ml test compound; for inhibition at 1 µg/mL: 1 μg/ml test compound. Summed up:
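E. coli-expressed HBV polymerase was incubated on streptavidin-coated wells with […] (10 µM each in the reaction mix), with test compound at 1, 0.1 and 0.01 µg/ml, for 15 h at 22 °C. Product was detected with anti-DIG-POD and ABTS at A405; % reduction relative to the no-compound control.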
(In general: In an ELISA, binding on a coated surface is turned into a signal by an enzyme label.)

Another data set has as its system HBV. The data set can be described thus: Inhibition of HBV proliferation in HBV producing cell line HepG 2.2.15 (competitive PCR of culture supernatant). Conditions: Hepatitis B virus, HepG2.2.15, 168 h, HepG 2.2.15, one week, read-out: Inhibitory effect on the HBV proliferation, Inhibition activity on HBV-RT (%); for inhibition at 0.01 µg/mL: 0.01 μg/ml; for inhibition at 0.1 µg/mL: 0.1 μg/ml; for inhibition at 1 µg/mL: 1 μg/ml. Type of data set: cell-based, Hepatitis B virus.

The target of data set [1] is T2, HIV reverse transcriptase (Human immunodeficiency virus type 1 group M subtype B, UniProt P04585).
T2 construct: activities of HIV reverse transcriptase; purchased Boehringer Mannheim
The experiment in a line: In vitro HIV reverse transcriptase activity (non-radioactive reverse transcriptase assay kit). Type of data set: biochemical. The conditions noted are these: for Inhibitory effect on the activities of HIV reverse transcriptase, Inhibition activity on HBV-RT (%): 0.1 μg/ml test compound; for Inhibition of HIV reverse transcriptase activity: 1 μg/ml test compound.

Data set [2] is described as follows: Cytotoxicity test on HepG2 cells (MTT). Type of data set: cell-based. The conditions noted are these: human, read-out: Cytotoxity on HepG2, IC50 (50% Inhibitory Concentration).
The subject of the next data set is HepG2 cells. The experiment in a line: Cytotoxicity test on HepG2 cells (MTT). Type of data set: cell-based.

T1 sequence (P03159 whole entry): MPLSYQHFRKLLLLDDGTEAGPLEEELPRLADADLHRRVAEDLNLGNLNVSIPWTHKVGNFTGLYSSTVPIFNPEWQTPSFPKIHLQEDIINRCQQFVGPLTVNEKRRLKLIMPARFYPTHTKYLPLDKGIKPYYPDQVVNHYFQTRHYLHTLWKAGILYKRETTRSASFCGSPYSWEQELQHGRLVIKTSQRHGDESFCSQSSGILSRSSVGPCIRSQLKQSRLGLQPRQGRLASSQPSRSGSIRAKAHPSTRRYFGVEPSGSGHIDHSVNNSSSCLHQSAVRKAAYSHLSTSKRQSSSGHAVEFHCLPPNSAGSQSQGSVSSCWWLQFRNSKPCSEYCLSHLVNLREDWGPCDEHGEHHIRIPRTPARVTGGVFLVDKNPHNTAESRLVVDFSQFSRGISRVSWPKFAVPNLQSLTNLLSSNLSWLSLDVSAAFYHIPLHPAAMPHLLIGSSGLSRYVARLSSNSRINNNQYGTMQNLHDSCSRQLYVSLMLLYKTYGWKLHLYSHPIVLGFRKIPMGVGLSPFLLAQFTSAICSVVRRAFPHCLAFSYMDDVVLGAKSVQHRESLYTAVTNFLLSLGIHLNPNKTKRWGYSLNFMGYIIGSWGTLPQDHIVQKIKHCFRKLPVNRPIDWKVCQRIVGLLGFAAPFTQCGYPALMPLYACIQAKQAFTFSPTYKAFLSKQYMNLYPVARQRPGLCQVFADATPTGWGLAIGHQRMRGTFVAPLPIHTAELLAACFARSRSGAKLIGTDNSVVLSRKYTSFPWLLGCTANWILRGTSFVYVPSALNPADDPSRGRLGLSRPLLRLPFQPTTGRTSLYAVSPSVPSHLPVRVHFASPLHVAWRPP

Turning to `CNC(=O)c1cnc(SC)nc1Nc1ccc2[nH]ncc2c1` [Example 3, 4-(1H-5-Indazolylamino)-N-methyl-2-methylthio-5-pyrimidine carboxamide], at HBV polymerase, the inhibition at 0.01 µg/mL was 34%, the inhibition at 0.1 µg/mL was 59% and the inhibition at 1 µg/mL was found to be 88%. In addition, in the data set with HBV, the inhibition at 0.01 µg/mL turned out to be 15%, the inhibition at 0.1 µg/mL is 42% and the inhibition at 1 µg/mL is 75%. Moreover, in data set [1], the “Inhibitory effect on the activities of HIV reverse transcriptase, Inhibition activity on HBV-RT (%)” value came to 48% and the “Inhibition of HIV reverse transcriptase activity” value was 62%. The IC50 in data set [2] is greater than 100 µg/mL. Besides, the “Cytotoxity on HepG2, MCD (Minimal Cytotoxic Concentration)” value in the data set on HepG2 cells turned out to be 100 µg/mL.
Regarding `CNC(=O)c1cnc(SC)nc1Nc1ccc2cn[nH]c2c1` [Example 4, 4-(1H-6-Indazolylamino)-N-methyl-2-methylthio-5-pyrimidinecarboxamide], on HBV polymerase, the inhibition at 0.01 µg/mL is 52%, the inhibition at 0.1 µg/mL amounted to 77% and the inhibition at 1 µg/mL stood at 96%. Also, in the data set with HBV, the inhibition at 0.01 µg/mL was determined as 32%, the inhibition at 0.1 µg/mL was found to be 70% and the inhibition at 1 µg/mL amounted to 94%. In addition, in data set [1], the “Inhibitory effect on the activities of HIV reverse transcriptase, Inhibition activity on HBV-RT (%)” value is on record as 42% and the “Inhibition of HIV reverse transcriptase activity” value is 70%. Moreover, the IC50 in data set [2] was greater than 100 µg/mL. In addition, the “Cytotoxity on HepG2, MCD (Minimal Cytotoxic Concentration)” value with HepG2 cells stood at 100 µg/mL.
